Data on two compounds can be found in publication PMC9921161, “Antihyaluronidase and Antioxidant Potential of Atriplex sagittata Borkh. in Relation to Phenolic Compounds and Triterpene Saponins” (Molecules, 2023).

For the experiment, the target named is Hyaluronidase from bovine testes type I-S (Bos taurus, UniProt Q2YDK3). As to the kind of experiment: Antihyaluronidase activity, spectrophotometric (turbidimetric CTAB) method. The conditions noted are these: for IC50 hyaluronidase inhibition: pH 4.5, 37 °C. It counts as biochemical. On the procedure:
Antihyaluronidase activity was determined using a spectrophotometric method described previously. Briefly, extracts after evaporation of methanol were dissolved in DMSO (at concentrations of 0.01–1 mg/mL) and were pre-incubated (10 min, 37 °C) in the presence of the hyaluronidase enzyme (25 µL Hyal, 30 U/mL) and incubation buffer (25 µL, acetate buffer, pH 4.5, […], 0.5 mg/mL albumin). The same procedure was applied to isolated compounds (at concentrations 0.005–1 mg/mL). Next, a solution of hyaluronic acid (25 µL HA, 0.3 mg/mL) was added to the reaction mixtures and the samples were incubated (45 min, 37 °C). After incubation, CTAB (200 µL of 2.5%) solution was added to the reaction mixtures. The inhibitory effect of the tested extracts and saponins on the enzyme activity was determined on the basis of the measurement of the absorbance of the precipitated nonhydrolyzed hyaluronic acid. The study was carried out using a multipurpose plate reader (Synergy HT BioTek, Winooski, VT, USA) at a wavelength of 600 nm. Antihyaluronidase activity was expressed as % enzyme inhibition, as previously described. Quercetin and escin were used as positive controls in the range of concentrations (10–1000 µg/mL corresponding to the analyzed substances (see Table 4).

[1] abbreviates: read-out: Hyaluronidase Inhibition [%].

One may read the inhibition as the change of the read-out against control, counted positive when it falls.

Chain of Hyaluronidase from bovine testes type I-S (Q2YDK3 entry or part of it): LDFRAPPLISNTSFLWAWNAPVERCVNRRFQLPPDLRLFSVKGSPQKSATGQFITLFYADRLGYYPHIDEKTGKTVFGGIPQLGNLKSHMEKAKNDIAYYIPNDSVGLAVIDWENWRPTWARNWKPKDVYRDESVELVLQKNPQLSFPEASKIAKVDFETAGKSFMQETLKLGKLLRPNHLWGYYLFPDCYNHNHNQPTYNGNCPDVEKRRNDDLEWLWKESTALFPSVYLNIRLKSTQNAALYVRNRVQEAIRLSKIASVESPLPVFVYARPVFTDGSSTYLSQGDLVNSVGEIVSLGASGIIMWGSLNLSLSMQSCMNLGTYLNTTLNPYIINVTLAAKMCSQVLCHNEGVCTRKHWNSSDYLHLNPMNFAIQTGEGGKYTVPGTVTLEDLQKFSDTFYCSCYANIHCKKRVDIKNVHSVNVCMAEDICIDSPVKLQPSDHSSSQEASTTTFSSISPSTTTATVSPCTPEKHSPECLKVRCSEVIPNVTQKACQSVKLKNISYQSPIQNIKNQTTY

On to `O=c1c(O)c(-c2ccc(O)c(O)c2)oc2cc(O)cc(O)c12` [quercetin], for which the IC50 hyaluronidase inhibition was 514.28 µg/mL. Under setting [1], the inhibition at 10 µg/mL amounted to 0.61 ± 0.53%, the inhibition at 20 µg/mL is 0.62 ± 0.54%, the inhibition at 50 µg/mL worked out at 1.24 ± 0.99% and the inhibition at 100 µg/mL turned out to be 4.39 ± 0.88%. Also, under setting [1], the inhibition at 200 µg/mL turned out to be 13.9 ± 2.7%, the inhibition at 300 µg/mL turned out to be 21.9 ± 4.04%, the inhibition at 500 µg/mL came out at 38.8 ± 1.33% and the inhibition at 700 µg/mL turned out to be 80.56 ± 0.49%. Further, the inhibition at 1000 µg/mL under setting [1] was found to be 91.1 ± 1.5%.
Turning to escin, the IC50 hyaluronidase inhibition is 307.38 µg/mL.
